From ChEMBL document CHEMBL6078713, “Synthesis and mechanistic studies of 4-aminoquinoline-Isatin molecular hybrids and Schiff's bases as promising antimicrobial agents” (Eur J Med Chem, 2025)
Values after ≈ are worked out from the molar mass of the structure shown. Active and inactive are the calls of the source. No cut-off for these calls is given here.

Legend:
[1] = tested on: Staphylococcus aureus; test: Bacteriostatic activity against Staphylococcus aureus MTCC 902 assessed as reduction in bacterial growth at 2 times MIC measured upto 24 hrs by absorbance based assay; type: functional, organism-based
[2] = tested on: Salmonella typhi; test: Antibacterial activity against Salmonella typhi assessed as inhibition of bacterial growth incubated overnight by serial dilution based spectrophotometer; type: functional, Salmonella enterica subsp. enterica serovar Typhi; settings: Salmonella enterica
[3] = tested on: Escherichia coli; test: Antibacterial activity against Escherichia coli MTCC 443 assessed as diameter of zone of inhibition at 0.5 times MIC incubated overnight by disk diffusion method; type: functional
[4] = tested on: Pseudomonas aeruginosa; test: Antibacterial activity against Pseudomonas aeruginosa MTCC 2453 assessed as inhibition of bacterial growth incubated overnight by spectrophotometry relative to control; type: functional
[5] = tested on: Pseudomonas aeruginosa; test: Ratio of MBC for antibacterial activity against Pseudomonas aeruginosa MTCC 2453 to MIC for bactericidal activity against Pseudomonas aeruginosa MTCC 2453; type: functional
[6] = tested on: Enterococcus faecalis; test: Bactericidal activity against Enterococcus faecalis MTCC 439 assessed as inhibition of bacterial growth incubated overnight; type: functional
[7] = tested on: Enterococcus faecalis; test: Ratio of MBC for antibacterial activity against Enterococcus faecalis MTCC 439 to MIC for bactericidal activity against Enterococcus faecalis MTCC 439; type: functional
[8] = tested on: Pseudomonas aeruginosa; test: Antibacterial activity against Pseudomonas aeruginosa MTCC 2453 assessed as inhibition of bacterial growth incubated overnight by serial dilution based spectrophotometer; type: functional
[9] = tested on: Enterococcus faecalis; test: Synergistic antibacterial activity against Enterococcus faecalis MTCC 439 assessed as fractional inhibitory concentration index incubated overnight in presence of ciprofloxacin by microdilution checkerboard assay; type: functional
[10] = tested on: Escherichia coli; test: Synergistic antibacterial activity against Escherichia coli MTCC 443 assessed as inhibition of bacterial growth incubated overnight in presence of ciprofloxacin by serial dilution based spectrophotometer; type: functional
[11] = tested on: Pseudomonas aeruginosa; test: Synergistic antibacterial activity against Pseudomonas aeruginosa MTCC 2453 assessed as inhibition of bacterial growth incubated overnight in presence of ciprofloxacin by serial dilution based spectrophotometer; type: functional
[12] = tested on: Pseudomonas aeruginosa; test: Antibacterial activity against Pseudomonas aeruginosa MTCC 2453 assessed as diameter of zone of inhibition at 2 times MIC incubated overnight by disk diffusion method; type: functional
[13] = tested on: Pseudomonas aeruginosa; test: Antibacterial activity against Pseudomonas aeruginosa MTCC 2453 assessed as diameter of zone of inhibition at 0.5 times MIC incubated overnight by disk diffusion method; type: functional
[14] = tested on: Escherichia coli; test: Antibacterial activity against Escherichia coli MTCC 443 assessed as inhibition of bacterial growth incubated overnight by serial dilution based spectrophotometer; type: functional
[15] = tested on: Staphylococcus aureus; test: Bacteriostatic activity against Staphylococcus aureus MTCC 902 assessed as reduction in bacterial growth at 0.5 to 1 times MIC measured upto 24 hrs by absorbance based assay; type: functional, organism-based
[16] = tested on: Pseudomonas aeruginosa; test: Synergistic antibacterial activity against Pseudomonas aeruginosa MTCC 2453 assessed as fractional inhibitory concentration index incubated overnight in presence of ciprofloxacin by microdilution checkerboard assay; type: functional
[17] = tested on: Staphylococcus aureus; test: Bactericidal activity against Staphylococcus aureus MTCC 902 assessed as inhibition of bacterial growth incubated overnight; type: functional
[18] = tested on: Bacillus subtilis; test: Antibacterial activity against Bacillus subtilis MTCC 736 assessed as diameter of zone of inhibition at MIC incubated overnight by disk diffusion method; type: functional
[19] = tested on: Bacillus subtilis; test: Antibacterial activity against Bacillus subtilis MTCC 736 assessed as diameter of zone of inhibition at 2 times MIC incubated overnight by disk diffusion method; type: functional
[20] = tested on: Staphylococcus aureus; test: Antibacterial activity against Staphylococcus aureus MTCC 902 assessed as inhibition of bacterial growth incubated overnight by serial dilution based spectrophotometer; type: functional
[21] = tested on: Staphylococcus aureus; test: Antibacterial activity against Staphylococcus aureus MTCC 902 assessed as diameter of zone of inhibition at 2 times MIC incubated overnight by disk diffusion method; type: functional
[22] = tested on: Staphylococcus aureus; test: Synergistic antibacterial activity against Staphylococcus aureus MTCC 902 assessed as fractional inhibitory concentration index incubated overnight in presence of ciprofloxacin by microdilution checkerboard assay; type: functional
[23] = tested on: Escherichia coli; test: Bacteriostatic activity against Escherichia coli MTCC 443 assessed as reduction in bacterial growth at 2 times MIC measured upto 10 hrs by absorbance based assay; type: functional, organism-based
[24] = tested on: Bacillus subtilis; test: Antibacterial activity against Bacillus subtilis MTCC 736 assessed as inhibition of bacterial growth incubated overnight by serial dilution based spectrophotometer; type: functional
[25] = tested on: Salmonella typhi; test: Antibacterial activity against Salmonella typhi assessed as diameter of zone of inhibition at 0.5 times MIC incubated overnight by disk diffusion method; type: functional, Salmonella enterica subsp. enterica serovar Typhi
[26] = tested on: Enterococcus faecalis; test: Antibacterial activity against Enterococcus faecalis MTCC 439 assessed as inhibition of bacterial growth incubated overnight by serial dilution based spectrophotometer; type: functional
[27] = tested on: Staphylococcus aureus; test: Antibacterial activity against Staphylococcus aureus MTCC 902 assessed as diameter of zone of inhibition at MIC incubated overnight by disk diffusion method; type: functional
[28] = tested on: Staphylococcus aureus; test: Ratio of MBC for antibacterial activity against Staphylococcus aureus MTCC 902 to MIC for bactericidal activity against Staphylococcus aureus MTCC 902; type: functional
[29] = tested on: Salmonella typhi; test: Antibacterial activity against Salmonella typhi assessed as diameter of zone of inhibition at MIC incubated overnight by disk diffusion method; type: functional, Salmonella enterica subsp. enterica serovar Typhi
[30] = tested on: Escherichia coli; test: Antibacterial activity against Escherichia coli MTCC 443 assessed as diameter of zone of inhibition at 2 times MIC incubated overnight by disk diffusion method; type: functional
[31] = tested on: Staphylococcus aureus; test: Antibacterial activity against Staphylococcus aureus MTCC 902 assessed as diameter of zone of inhibition at 0.5 times MIC incubated overnight by disk diffusion method; type: functional
[32] = tested on: Pseudomonas aeruginosa; test: Antibacterial activity against Pseudomonas aeruginosa MTCC 2453 assessed as diameter of zone of inhibition at MIC incubated overnight by disk diffusion method; type: functional
[33] = tested on: Salmonella typhi; test: Antibacterial activity against Salmonella typhi assessed as diameter of zone of inhibition at 2 times MIC incubated overnight by disk diffusion method; type: functional, Salmonella enterica subsp. enterica serovar Typhi
[34] = tested on: Enterococcus faecalis; test: Synergistic antibacterial activity against Enterococcus faecalis MTCC 439 assessed as inhibition of bacterial growth incubated overnight in presence of ciprofloxacin by serial dilution based spectrophotometer; type: functional
[35] = tested on: Staphylococcus aureus; test: Antibacterial activity against Staphylococcus aureus MTCC 902 assessed as diameter of zone of inhibition at 500 ug/ml by agar disk diffusion method; type: functional; settings: read-out: DIZ
[36] = tested on: Escherichia coli; test: Bactericidal activity against Escherichia coli MTCC 443 assessed as inhibition of bacterial growth incubated overnight; type: functional
[37] = tested on: Escherichia coli; test: Synergistic antibacterial activity against Escherichia coli MTCC 443 assessed as fractional inhibitory concentration index incubated overnight in presence of ciprofloxacin by microdilution checkerboard assay; type: functional
[38] = tested on: Enterococcus faecalis; test: Antibacterial activity against Enterococcus faecalis MTCC 439 assessed as diameter of zone of inhibition at MIC incubated overnight by disk diffusion method; type: functional
[39] = tested on: Escherichia coli; test: Antibacterial activity against Escherichia coli MTCC 443 assessed as diameter of zone of inhibition at MIC incubated overnight by disk diffusion method; type: functional
[40] = tested on: Pseudomonas aeruginosa; test: Antibacterial activity against Pseudomonas aeruginosa MTCC 2453 assessed as diameter of zone of inhibition at 500 ug/ml by agar disk diffusion method; type: functional; settings: read-out: DIZ
[41] = tested on: Escherichia coli; test: Antibacterial activity against Escherichia coli MTCC 443 assessed as diameter of zone of inhibition at 500 ug/ml by agar disk diffusion method; type: functional; settings: read-out: DIZ
[42] = tested on: Pseudomonas aeruginosa; test: Bactericidal activity against Pseudomonas aeruginosa MTCC 2453 assessed as inhibition of bacterial growth incubated overnight; type: functional
[43] = tested on: Enterococcus faecalis; test: Antibacterial activity against Enterococcus faecalis MTCC 439 assessed as inhibition of bacterial growth incubated overnight by spectrophotometry relative to control; type: functional
[44] = tested on: Enterococcus faecalis; test: Antibacterial activity against Enterococcus faecalis MTCC 439 assessed as diameter of zone of inhibition at 2 times MIC incubated overnight by disk diffusion method; type: functional
[45] = tested on: Enterococcus faecalis; test: Antibacterial activity against Enterococcus faecalis MTCC 439 assessed as diameter of zone of inhibition at 500 ug/ml by agar disk diffusion method; type: functional; settings: read-out: DIZ
[46] = tested on: Enterococcus faecalis; test: Antibacterial activity against Enterococcus faecalis MTCC 439 assessed as diameter of zone of inhibition at 0.5 times MIC incubated overnight by disk diffusion method; type: functional
[47] = tested on: Staphylococcus aureus; test: Bacteriostatic activity against Staphylococcus aureus MTCC 902 assessed as reduction in bacterial growth at 2 times MIC measured upto 10 hrs by absorbance based assay; type: functional, organism-based
[48] = tested on: Staphylococcus aureus; test: Synergistic antibacterial activity against Staphylococcus aureus MTCC 902 assessed as inhibition of bacterial growth incubated overnight in presence of ciprofloxacin by serial dilution based spectrophotometer; type: functional
[49] = tested on: Bacillus subtilis; test: Antibacterial activity against Bacillus subtilis MTCC 736 assessed as inhibition of bacterial growth incubated overnight by spectrophotometry relative to control; type: functional
[50] = tested on: Staphylococcus aureus; test: Antibacterial activity against Staphylococcus aureus MTCC 902 assessed as inhibition of bacterial growth incubated overnight by spectrophotometry relative to control; type: functional
[51] = tested on: Escherichia coli; test: Bacteriostatic activity against Escherichia coli MTCC 443 assessed as reduction in log phase of bacterial growth at 0.5 to 1 times MIC measured upto 24 hrs by absorbance based assay; type: functional, organism-based

## O=C1Nc2ccc(Cl)cc2/C1=N/CCNc1ccnc2cc(Cl)ccc12
[1]
  Activity: inactive
[2]
  MIC: > 512 µg/mL
[3]
  diameter of the inhibition zone (DIZ): 11 mm
[4]
  inhibition (INH): >80%
[5]
  Ratio: 1
[6]
  MBC: 512 µg/mL (≈ 1330 µM)
[7]
  Ratio: 1
[8]
  MIC: 128 µg/mL (≈ 332 µM)
[9]
  fractional inhibitory concentration index (FICI): 1.125
[10]
  MIC: 32 µg/mL
[11]
  MIC: 8 µg/mL
[12]
  diameter of the inhibition zone (DIZ): 20 mm
[13]
  diameter of the inhibition zone (DIZ): 13 mm
[14]
  MIC: 256 µg/mL (≈ 664 µM)
[15]
  Activity: inactive
[16]
  fractional inhibitory concentration index (FICI): 1.062
[17]
  MBC: 256 µg/mL (≈ 664 µM)
[18]
  diameter of the inhibition zone (DIZ): 6 mm
[19]
  diameter of the inhibition zone (DIZ): 8 mm
[20]
  MIC: 256 µg/mL (≈ 664 µM)
[21]
  diameter of the inhibition zone (DIZ): 16 mm
[22]
  fractional inhibitory concentration index (FICI): 1.25
[23]
  Activity: Active
[24]
  MIC: > 512 µg/mL
[25]
  diameter of the inhibition zone (DIZ): 13 mm
[26]
  MIC: 512 µg/mL (≈ 1330 µM)
[27]
  diameter of the inhibition zone (DIZ): 15 mm
[28]
  Ratio: 1
[29]
  diameter of the inhibition zone (DIZ): 10 mm
[30]
  diameter of the inhibition zone (DIZ): 11 mm
[31]
  diameter of the inhibition zone (DIZ): 13 mm
[32]
  diameter of the inhibition zone (DIZ): 18 mm
[33]
  diameter of the inhibition zone (DIZ): 11 mm
[34]
  MIC: 64 µg/mL
[35]
  zone of inhibition at 500 µg/mL: 10 mm
[36]
  MBC: > 512 µg/mL
[37]
  fractional inhibitory concentration index (FICI): 0.249
[38]
  diameter of the inhibition zone (DIZ): 17 mm
[39]
  diameter of the inhibition zone (DIZ): 12 mm
[40]
  zone of inhibition at 500 µg/mL: 12 mm
[41]
  zone of inhibition at 500 µg/mL: 11 mm
[42]
  MBC: 128 µg/mL (≈ 332 µM)
[43]
  inhibition (INH): >80%
[44]
  diameter of the inhibition zone (DIZ): 19 mm
[45]
  zone of inhibition at 500 µg/mL: 8 mm
[46]
  diameter of the inhibition zone (DIZ): 12 mm
[47]
  Activity: Active
[48]
  MIC: 64 µg/mL
[49]
  inhibition (INH): >80%
[50]
  inhibition (INH): >80%
[51]
  Activity: Active
